In patent publication US20250346600A1, “TRICYCLIC DERIVATIVES AND RELATED USES” (MOMA Therapeutics, Inc., priority 2023, published 2025):
Where two headings read alike, the source gives them in different places.

Experiments:
[1] = target: T1, Full length WRN protein (aa 2-1432) (Homo sapiens (Human), UniProt Q14191); experiment: WRN ATPase ADP-Glo biochemical assay, Assay Format B (100 μM ATP); details: 0.25 nM WRN, 100 nM C6.18 ssDNA, 60 min preincubation, read-out: ATPase ADPGlo AC50 (uM)- Assay Format B
HCT116 cells = experiment: HCT116 (MSI) 7 day viability, CellTiter Glo; assay type: cell-based; details: 7 days, read-out: HCT116 (MSI) Viability 7 Day Abs AC50
Procedure, shortened: (§1)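 Seven-day viability is assessed with CellTiter Glo after compounds, diluted in ten 3-fold steps in DMSO, are exposed to HCT116 (50 cells/well) or HT29 (500 cells/well). Reported IC50 is the geometric mean of at least two independent runs.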

[2] = target: T1, Full length WRN protein (aa 2-1432); experiment: WRN ATPase ADP-Glo biochemical assay, Assay Format A (10 μM ATP); details: 0.25 nM WRN, 100 nM C6.18 ssDNA, 30 min preincubation, read-out: ATPase ADPGlo AC50 (uM)- Assay Format A
Procedure, shortened: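 Sf9-expressed FLAG-AVI-TEV-tagged WRN (0.5 nM) preincubated 30 min with compound (11-point 3-fold dilution). Reaction started with 200 nM C6.18 39-mer ssDNA and 20 μM ATP (addition concentrations), run 30 min at room temperature. ADP measured by ADP-Glo luminescence; IC50 from four-parameter fit, geometric mean of ≥2 runs.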

HT29 cells = experiment: HT29 (MSS) 7 day viability, CellTiter Glo; assay type: cell-based; details: Homo sapiens, HT-29, 168 h, 7 days, read-out: HT29 (MSS) Viability 7 Day CTGAbs AC50
Procedure, shortened: as §1

T1 sequence (Q14191 2-1432): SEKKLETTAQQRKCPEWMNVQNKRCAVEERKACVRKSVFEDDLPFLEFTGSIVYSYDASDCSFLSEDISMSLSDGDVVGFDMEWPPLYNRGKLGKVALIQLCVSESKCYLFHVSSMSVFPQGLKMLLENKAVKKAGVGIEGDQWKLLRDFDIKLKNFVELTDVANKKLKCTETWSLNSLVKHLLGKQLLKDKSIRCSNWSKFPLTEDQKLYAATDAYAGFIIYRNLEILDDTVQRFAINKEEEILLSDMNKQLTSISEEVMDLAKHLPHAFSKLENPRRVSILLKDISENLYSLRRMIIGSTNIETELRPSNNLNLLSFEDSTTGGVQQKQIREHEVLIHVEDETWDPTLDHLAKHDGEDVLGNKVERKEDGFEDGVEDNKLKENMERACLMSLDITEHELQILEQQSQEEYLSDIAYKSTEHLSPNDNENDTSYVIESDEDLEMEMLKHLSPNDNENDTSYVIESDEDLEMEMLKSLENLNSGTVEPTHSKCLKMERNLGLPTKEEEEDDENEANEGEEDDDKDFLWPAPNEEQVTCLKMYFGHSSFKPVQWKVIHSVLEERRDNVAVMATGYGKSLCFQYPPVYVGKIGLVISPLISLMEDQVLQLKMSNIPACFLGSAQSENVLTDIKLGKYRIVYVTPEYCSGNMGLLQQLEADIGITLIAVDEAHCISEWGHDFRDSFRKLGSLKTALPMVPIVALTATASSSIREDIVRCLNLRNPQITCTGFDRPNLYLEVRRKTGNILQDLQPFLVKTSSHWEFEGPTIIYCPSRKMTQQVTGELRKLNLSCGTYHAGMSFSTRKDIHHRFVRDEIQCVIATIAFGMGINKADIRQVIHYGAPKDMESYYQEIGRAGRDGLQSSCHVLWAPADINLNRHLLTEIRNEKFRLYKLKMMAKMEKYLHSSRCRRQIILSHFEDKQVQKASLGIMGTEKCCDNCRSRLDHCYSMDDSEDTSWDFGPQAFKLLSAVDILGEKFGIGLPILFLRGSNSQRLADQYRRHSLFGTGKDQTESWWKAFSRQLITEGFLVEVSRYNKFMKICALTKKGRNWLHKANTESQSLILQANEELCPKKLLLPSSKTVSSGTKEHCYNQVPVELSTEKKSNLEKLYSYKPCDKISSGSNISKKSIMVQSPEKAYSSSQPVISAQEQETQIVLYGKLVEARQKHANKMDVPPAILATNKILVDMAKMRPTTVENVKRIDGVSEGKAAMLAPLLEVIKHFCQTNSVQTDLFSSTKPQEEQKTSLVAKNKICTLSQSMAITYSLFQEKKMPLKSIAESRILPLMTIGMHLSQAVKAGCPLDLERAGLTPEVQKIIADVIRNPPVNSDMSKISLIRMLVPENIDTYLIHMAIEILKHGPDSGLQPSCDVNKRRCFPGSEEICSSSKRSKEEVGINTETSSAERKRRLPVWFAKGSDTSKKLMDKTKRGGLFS

AC50 [1] [µM]	AC50 [2] [µM]	Compound	AC50 (HCT116 cells; Homo sapiens, HCT-116, 168 h) [µM]	AC50 (HT29 cells) [µM]	AC50 (HCT116 cells) [µM]
> 0.055	0.015 to 0.055	C=C(F)C(=O)N1CCc2nn(-c3ccc(C(C)C)cc3)c3c2C(C1)N(C(=O)c1ccc(Br)c2[nH]cnc12)CC3 (stereo not drawn) [Compound 17, 1-(5-(7-bromo-1H-benzo[d]imidazole-4-carbonyl)-2-(4-isopropylphenyl)-2,3,4,5,5a,6,8,9-octahydro-7H-1,2,5,7-tetraazabenzo[cd]azulen-7-yl)-2-fluoroprop-2-en-1-one]	> 1	> 3	
0.0015 to 0.005	< 0.0015	C=CC(=O)N1CC(OC)c2nn(-c3ccc(C4CCC4)cc3O)c3c2C(C1)N(C(=O)c1cnc(C(F)(F)F)c(O)c1)CC3 (stereo not drawn) [Compound 72, 1-(2-(4-cyclobutyl-2-hydroxyphenyl)-5-(5-hydroxy-6-(trifluoromethyl)nicotinoyl)-9-methoxy-2,3,4,5,5a,6,8,9-octahydro-7H-1,2,5,7-tetraazabenzo[cd]azulen-7-yl)prop-2-en-1-one]	0.001 to 0.1	> 3	
0.005 to 0.015	< 0.0015	C=CC(=O)N1CCc2nn(-c3ccc(C4CCC4)cc3O)c3c2C(C1)N(C(=O)c1ccc(Br)c2nc(C(F)F)[nH]c12)CC3 (stereo not drawn) [Compound 90, 1-(5-(4-bromo-2-(difluoromethyl)-1H-benzo[d]imidazole-7-carbonyl)-2-(4-cyclobutyl-2-hydroxyphenyl)-2,3,4,5,5a,6,8,9-octahydro-7H-1,2,5,7-tetraazabenzo[cd]azulen-7-yl)prop-2-en-1-one]	0.001 to 0.1	> 3	
0.005 to 0.015	< 0.0015	C=CC(=O)N1CC(C)c2nn(-c3ccc(C4CCC4)cc3O)c3c2C(C1)N(C(=O)c1cnc(C(F)(F)F)cc1N)CC3 (stereo not drawn) [Compound 130, 1-(5-(4-amino-6-(trifluoromethyl)nicotinoyl)-2-(4-cyclobutyl-2-hydroxyphenyl)-9-methyl-2,3,4,5,5a,6,8,9-octahydro-7H-1,2,5,7-tetraazabenzo[cd]azulen-7-yl)prop-2-en-1-one]	0.001 to 0.1	> 3	
> 0.055	0.005 to 0.015	C=CC(=O)N1CCc2nn(-c3ccc(C(C)C)cc3)c3c2C(C1)N(C(=O)c1ccc(Br)c(NCC(F)(F)F)c1)CC3 (stereo not drawn) [Compound 104, 1-(5-(4-bromo-3-((2,2,2-trifluoroethyl)amino)benzoyl)-2-(4-isopropylphenyl)-2,3,4,5,5a,6,8,9-octahydro-7H-1,2,5,7-tetraazabenzo[cd]azulen-7-yl)prop-2-en-1-one]	0.001 to 0.1	> 3	
0.005 to 0.015	0.0015 to 0.005	C=CC(=O)N1CC(OC)c2nn(-c3ccc(C4CCC4)cc3)c3c2C(C1)N(C(=O)c1cnc(C(F)(F)F)c(O)c1)CC3 (stereo not drawn) [Compound 156, 1-(2-(4-cyclobutylphenyl)-5-(5-hydroxy-6-(trifluoromethyl)nicotinoyl)-9-methoxy-2,3,4,5,5a,6,8,9-octahydro-7H-1,2,5,7-tetraazabenzo[cd]azulen-7-yl)prop-2-en-1-one]	0.001 to 0.1	> 3	
0.005 to 0.015	0.0015 to 0.005	C=CC(=O)N1CCc2nn(-c3ccc(C4CC4)cc3OC(F)F)c3c2C(C1)N(C(=O)c1cnc(C(F)(F)F)cc1N)CC3 (stereo not drawn) [Compound 252, 1-(5-(4-amino-6-(trifluoromethyl)nicotinoyl)-2-(4-cyclopropyl-2-(difluoromethoxy)phenyl)-2,3,4,5,5a,6,8,9-octahydro-7H-1,2,5,7-tetraazabenzo[cd]azulen-7-yl)prop-2-en-1-one]	0.001 to 0.1	> 3	
0.0015 to 0.005	0.0015 to 0.005	C=CC(=O)N1CCc2nn(-c3ccc(C4CC4)cc3O)c3c2C(C1)N(C(=O)c1cnc(Br)c(F)c1N)CC3 (stereo not drawn) [Compound 202, 1-(5-(4-amino-6-bromo-5-fluoronicotinoyl)-2-(4-cyclopropyl-2-hydroxyphenyl)-2,3,4,5,5a,6,8,9-octahydro-7H-1,2,5,7-tetraazabenzo[cd]azulen-7-yl)prop-2-en-1-one]	0.001 to 0.1	> 3	
0.015 to 0.055	0.0015 to 0.005	C=CC(=O)N1CCc2nn(-c3ccc(C(F)(F)F)cc3O)c3c2C(C1)N(C(=O)c1ccc(Br)c2[nH]cnc12)CC3 (stereo not drawn) [Compound 3, 1-(5-(7-bromo-1H-benzo[d]imidazole-4-carbonyl)-2-(2-hydroxy-4-(trifluoromethyl)phenyl)-2,3,4,5,5a,6,8,9-octahydro-7H-1,2,5,7-tetraazabenzo[cd]azulen-7-yl)prop-2-en-1-one]	0.001 to 0.1	> 3	
0.015 to 0.055	< 0.0015	C=CC(=O)N1CCOc2nn(-c3ccc(C4CCC4)cc3O)c3c2C(C1)N(C(=O)c1ccc2c(Br)n[nH]c2c1)CC3 (stereo not drawn) [Compound 40, 1-(5-(3-bromo-1H-indazole-6-carbonyl)-2-(4-cyclobutyl-2-hydroxyphenyl)-2,3,4,5,5a,6,8,9-octahydro-7H-10-oxa-1,2,5,7-tetraazacycloocta[cd]inden-7-yl)prop-2-en-1-one]	0.001 to 0.1	> 3	
0.005 to 0.015	< 0.0015	C=CC(=O)N1CCc2nn(-c3ccc(C(C)C)cc3)c3c2C(C1)N(C(=O)c1cnc(C(F)(F)F)cc1N)CC3 (stereo not drawn) [Compound 150, 1-(5-(4-amino-6-(trifluoromethyl)nicotinoyl)-2-(4-isopropylphenyl)-2,3,4,5,5a,6,8,9-octahydro-7H-1,2,5,7-tetraazabenzo[cd]azulen-7-yl)prop-2-en-1-one]	0.001 to 0.1	> 3	
0.015 to 0.055	0.0015 to 0.005	C=CC(=O)N1CCc2nn(-c3ccc(C4CC4)c(F)c3O)c3c2C(C1)N(C(=O)c1cnc(C(F)(F)F)c(O)c1)CC3 (stereo not drawn) [Compound 100, 1-(2-(4-cyclopropyl-3-fluoro-2-hydroxyphenyl)-5-(5-hydroxy-6-(trifluoromethyl)nicotinoyl)-2,3,4,5,5a,6,8,9-octahydro-7H-1,2,5,7-tetraazabenzo[cd]azulen-7-yl)prop-2-en-1-one]	0.1 to 0.25	> 3	
0.005 to 0.015	< 0.0015	C=CC(=O)N1CCc2nn(-c3ccc(C4CCC4)cc3O)c3c2C(C1)N(C(=O)c1ccc(OC(F)(F)F)nc1)CC3 (stereo not drawn) [Compound 93, 1-(2-(4-cyclobutyl-2-hydroxyphenyl)-5-(6-(trifluoromethoxy)nicotinoyl)-2,3,4,5,5a,6,8,9-octahydro-7H-1,2,5,7-tetraazabenzo[cd]azulen-7-yl)prop-2-en-1-one]	0.001 to 0.1	> 3	
0.005 to 0.015	0.0015 to 0.005	C=CC(=O)N1CC(C)c2nn(-c3ccc(C(C)C)cc3)c3c2C(C1)N(C(=O)c1ccc(Br)c2[nH]cnc12)CC3 (stereo not drawn) [Compound 33, 1-(5-(7-bromo-1H-benzo[d]imidazole-4-carbonyl)-2-(4-isopropylphenyl)-9-methyl-2,3,4,5,5a,6,8,9-octahydro-7H-1,2,5,7-tetraazabenzo[cd]azulen-7-yl)prop-2-en-1-one]		> 3	0.001 to 0.1
0.0015 to 0.005	< 0.0015	C=CC(=O)N1CCc2nn(-c3ccc(C(C)C)cc3O)c3c2C(C1)N(C(=O)c1ccc(Br)c2[nH]c(C(F)F)nc12)CC3 (stereo not drawn) [Compound 174, 1-(5-(7-bromo-2-(difluoromethyl)-1H-benzo[d]imidazole-4-carbonyl)-2-(2-hydroxy-4-isopropylphenyl)-2,3,4,5,5a,6,8,9-octahydro-7H-1,2,5,7-tetraazabenzo[cd]azulen-7-yl)prop-2-en-1-one]	0.001 to 0.1	> 3	
0.005 to 0.015	< 0.0015	C=CC(=O)N1CCOc2nn(-c3ccc(C(C)C)cc3O)c3c2C(C1)N(C(=O)c1ccc(Br)c2[nH]cnc12)CC3 (stereo not drawn) [Compound 44, 1-(5-(7-bromo-1H-benzo[d]imidazole-4-carbonyl)-2-(2-hydroxy-4-isopropylphenyl)-2,3,4,5,5a,6,8,9-octahydro-7H-10-oxa-1,2,5,7-tetraazacycloocta[cd]inden-7-yl)prop-2-en-1-one]	0.001 to 0.1	> 3	
0.005 to 0.015	< 0.0015	C=CC(=O)N1CC(O)c2nn(-c3ccc(C4CC4)cc3)c3c2C(C1)N(C(=O)c1cnc(C(F)(F)F)cc1N)CC3 (stereo not drawn) [Compound 184, 1-(5-(4-amino-6-(trifluoromethyl)nicotinoyl)-2-(4-cyclopropylphenyl)-9-hydroxy-2,3,4,5,5a,6,8,9-octahydro-7H-1,2,5,7-tetraazabenzo[cd]azulen-7-yl)prop-2-en-1-one]	0.001 to 0.1	> 3	
< 0.0015	< 0.0015	C=CC(=O)N1CC(OCc2ncco2)c2nn(-c3ccc(C4CC4)cc3)c3c2C(C1)N(C(=O)c1cnc(C(F)(F)F)cc1N)CC3 (stereo not drawn) [Compound 250, 1-(5-(4-amino-6-(trifluoromethyl)nicotinoyl)-2-(4-cyclopropylphenyl)-9-(oxazol-2-ylmethoxy)-2,3,4,5,5a,6,8,9-octahydro-7H-1,2,5,7-tetraazabenzo[cd]azulen-7-yl)prop-2-en-1-one]	0.001 to 0.1	> 3	
